Measurements taken from patent publication US20120316169A1, “2-ARYL-PROPIONAMIDE DERIVATIVES USEFUL AS BRADYKININ RECEPTOR ANTAGONISTS AND PHARMACEUTICAL COMPOSITIONS CONTAINING THEM” (DOMPÉ S.P.A., priority 2009, published 2012).

The compounds below were run against T1, BKB1 receptors (Homo sapiens, UniProt P46663) (assay: Calcium mobilization assay (FLIPR), B1 receptors in IMR-90 cells). Details: Human IMR-90 lung fibroblast cells, up-regulated BKB1 receptors, agonist desArg10-kallidin (DAKD) 2 to 8 nM, calcium-dependent fluorescence.
T1 construct: Human (IMR-90) lung fibroblast cells expressing native B1 receptors; endogenous in cells; host or cells: IMR-90 human lung fibroblasts, interleukin-treated to up-regulate BKB1 receptors
T1 sequence (P46663 1-353): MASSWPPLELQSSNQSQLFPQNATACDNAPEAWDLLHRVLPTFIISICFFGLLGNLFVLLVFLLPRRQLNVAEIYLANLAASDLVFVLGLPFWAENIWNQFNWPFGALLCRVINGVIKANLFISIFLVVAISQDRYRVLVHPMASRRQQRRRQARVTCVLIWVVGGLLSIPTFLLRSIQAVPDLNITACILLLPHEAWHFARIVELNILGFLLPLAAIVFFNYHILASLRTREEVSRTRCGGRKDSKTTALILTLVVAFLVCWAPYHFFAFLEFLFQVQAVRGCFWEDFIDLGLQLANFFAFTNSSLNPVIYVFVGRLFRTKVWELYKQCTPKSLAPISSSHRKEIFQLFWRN
Assay type: cell-based
Procedure: Calcium mobilization assay (FLIPR)—Human (IMR-90) lung fibroblast cells expressing native B1 receptors were harvested by trypsinization and seeded into black wall/clear bottom 96-well plates (Costar 3904; Corning Life Sciences, Acton, Mass.) at approximately 13,000 cells/well. After 1 day incubation, cells were treated with […] (0.35 ng/ml) in 10% FBS/MEM for 2 h to up-regulate BKB1 receptors. Induced cells were loaded with fluorescent calcium indicator by incubation with 2.3 μM Fluo-4/acetoxymethyl ester (Invitrogen) at 37° C. for 1.5 h in the presence of an anion transport inhibitor (2.5 mM probenecid in 1% FBS/MEM). Extracellular dye was removed by washing with assay buffer (2.5 mM probenecid, 0.1% BSA in 20 mM HEPES/HBSS without bicarbonate or phenol red, pH 7.5) and cell plates were kept in the dark until used. Test compounds were assayed at eight concentrations in triplicate. Addition of test compounds to the cell plate and incubation for 5 min at 35° C., followed by the addition of 2 to 8 nM final BK1 agonist desArg^10-kallidin (DAKD, 3×EC50) was carried out in the fluorimetric imaging plate reader (FLIPR; Molecular Devices) while continuously monitoring calcium-dependent fluorescence.
With `CCn1nc(C)cc1NC(=O)C(C)c1ccc(Nc2nc(C(F)(F)F)cs2)cc1` (stereo not drawn) [Compound 41, N-(1-ethyl-3-methyl-1H-pyrazol-5-yl)-2-(4-{[4-(trifluoromethyl)-1,3-thiazol-2-yl]amino}phenyl)propanamide] the IC50 was 10 µM. `CC1CC(C)CN(CCNC(=O)C(C)c2ccc(Nc3nc(C(F)(F)F)cs3)cc2)C1` (stereo not drawn) [Compound 42, N-[2-(3,5-dimethylpiperidin-1-yl)ethyl]-2-(4-{[4-(trifluoromethyl)-1,3-thiazol-2-yl]amino}phenyl)propanamide] showed an IC50 of 6.61 µM. `CC(C(=O)NC(c1ccco1)N1CCOCC1)c1ccc(Nc2nc(C(F)(F)F)cs2)cc1` (stereo not drawn) [Compound 43, N-[furan-2-yl(morpholin-4-yl)methyl]-2-(4-{[4-(trifluoromethyl)-1,3-thiazol-2-yl]amino}phenyl)propanamide] was tested, and the IC50 was 12.9 µM. `CC(C(=O)Nc1ccc(Cc2ccncc2)cc1)c1ccc(Nc2nc(C(F)(F)F)cs2)cc1` (stereo not drawn) [Compound 44, N-[4-(pyridin-4-ylmethyl)phenyl]-2-(4-{[4-(trifluoromethyl)-1,3-thiazol-2-yl]amino}phenyl)propanamide] was tested, and the IC50 was 11.5 µM. `CC(C(=O)Nc1ccncc1)c1ccc(OS(=O)(=O)C(F)(F)F)cc1` (stereo not drawn) [Compound 47, 4-[1-oxo-1-(pyridin-4-ylamino)propan-2-yl]phenyl trifluoromethanesulfonate] was tested, and the IC50 was 3.24 µM. `CC(C(=O)Nc1ccc(Cc2ccncc2)cc1)c1ccc(OS(=O)(=O)C(F)(F)F)cc1` (stereo not drawn) [Compound 48, 4-{1-oxo-1-[4-(pyridin-4-ylmethyl)propan-2-yl]amino}phenyl trifluoromethanesulfonate] was tested, and the IC50 was 12.6 µM. In the case of `COc1cccc(CN(C)CCCNC(=O)C(C)c2ccc(OS(=O)(=O)C(F)(F)F)cc2)c1` (stereo not drawn) [Compound 50, 4-(1-{[3-[3-methoxybenzyl(methyl)amino]propyl}amino-1-oxopropan-2-yl)phenyl trifluoromethanesulfonate], the IC50 is reported as 3.63 µM. For `Cc1ccc(OCC(O)CNC(=O)C(C)c2ccc(OS(=O)(=O)C(F)(F)F)cc2)cc1C` (stereo not drawn) [Compound 51, 4-[3-(3,4-dimethylphenoxy)-2-hydroxypropyl]amino-1-oxopropan-2-yl)phenyl trifluoromethanesulfonate], the IC50 was 11.5 µM. Compound `CCOCCCNC(=O)C(C)c1cccc(Nc2cc(OC)cc(C(F)(F)F)c2)c1` (stereo not drawn) [Compound 52, 2-(3-{[3-methoxy-5-(trifluoromethyl)phenyl]amino}phenyl)-N-(3-ethoxypropyl)propanamide] has an IC50 of 8.91 µM. With `COc1cc(Nc2cccc(C(C)C(=O)Nn3cccc3)c2)cc(C(F)(F)F)c1` (stereo not drawn) [Compound 53, 2-(3-{[3-methoxy-5-(trifluoromethyl)phenyl]amino}phenyl)-N-(1H-pyrrol-1-yl)propanamide] the IC50 was 14.5 µM. In the case of `COc1cc(Nc2cccc(C(C)C(=O)NNC(=O)c3ccco3)c2)cc(C(F)(F)F)c1` (stereo not drawn) [Compound 54, N′-{2-[3-(3-methoxy-5-(trifluoromethyl)phenylamino)phenyl]propanoyl}furan-2-carbohydrazide], the IC50 is reported as 8.51 µM. `COc1cc(Nc2cccc(C(C)C(=O)Nc3ccncn3)c2)cc(C(F)(F)F)c1` (stereo not drawn) [Compound 55, 2-(3-{[3-methoxy-5-(trifluoromethyl)phenyl]amino}phenyl)-N-(pyrimidin-4-yl)propanamide] gave an IC50 of 5.25 µM. `CCNC(=O)C(C)c1cccc(Nc2cc(OC)cc(C(F)(F)F)c2)c1` (stereo not drawn) [Compound 56, N-ethyl-2-(3-{[3-methoxy-5-(trifluoromethyl)phenyl]amino}phenyl)propanamide] was tested, and the IC50 was 7.76 µM. `COc1cc(Nc2cccc(C(C)C(=O)NCCNCc3ccccc3)c2)cc(C(F)(F)F)c1` (stereo not drawn) [Compound 57, 2-{3-[(3-methoxy-5-(trifluoromethyl)phenyl)amino]phenyl}-N-[2-(benzylamino)ethyl]propanamide] showed an IC50 of 3.47 µM. With `COc1cc(Nc2cccc(C(C)C(=O)NCC(C)(C)N)c2)cc(C(F)(F)F)c1` (stereo not drawn) [Compound 58, N-(2-amino-2-methylpropyl)-2-[3-{[3-methoxy-5-(trifluoromethyl)phenyl]amino}phenyl]propanamide] the IC50 was 5.89 µM. `COc1cc(Nc2cccc(C(C)C(=O)NC3CCCCC3N)c2)cc(C(F)(F)F)c1` (stereo not drawn) [Compound 59, N-(2-aminocyclohexyl)-2-[3-{[3-methoxy-5-(trifluoromethyl)phenyl]amino}phenyl]propanamide] showed an IC50 of 6.92 µM. Work on `COC(=O)C(CNC(=O)OC(C)(C)C)NC(=O)C(C)c1ccc(Oc2cccc3ccccc23)cc1` (stereo not drawn) [Compound 60, methyl 3-[(tert-butoxycarbonyl)amino]-2-[4-(naphthalen-1-yloxyphenyl)propanoyl]aminopropanoate] yielded an IC50 of 10.5 µM. For `CC(C(=O)NCCNCc1ccccc1)c1ccc(Oc2cccc3ccccc23)cc1` (stereo not drawn) [Compound 61, N-[2-(benzylamino)ethyl]-2-[4-(naphthalen-1-yloxy)phenyl]propanamide], the IC50 was 3.24 µM. `CC(C(=O)NCCCN(C)C)c1ccc(Oc2cccc3ccccc23)cc1` (stereo not drawn) [Compound 62, N-[3-(dimethylamino)propyl]-2-[4-(naphthalen-1-yloxy)phenyl]propanamide] showed an IC50 of 3.8 µM. `CC(C(=O)NCCCNC1CCCCC1)c1ccc(Oc2cccc3ccccc23)cc1` (stereo not drawn) [Compound 63, N-[3-(cyclohexylamino)propyl]-2-[4-(naphthalen-1-yloxy)phenyl]propanamide] was tested, and the IC50 was 3.89 µM. `CC(C(=O)Nn1cnnc1)c1ccc(Oc2cccc3ccccc23)cc1` (stereo not drawn) [Compound 64, 2-[4-(naphthalen-1-yloxy)phenyl]-N-(4H-1,2,4-triazol-4-yl)propanamide] showed an IC50 of 8.91 µM. For `CC(C(=O)NCCC1CCCN1C)c1ccc(Oc2cccc3ccccc23)cc1` (stereo not drawn) [Compound 65, 2-[4-(naphthalen-1-yloxy)phenyl]-N-[2-(1-methylpyrrolidin-2-yl)ethyl]propanamide], the IC50 was 4.79 µM. Compound `CC(=O)NCCNC(=O)C(C)c1ccc(Oc2cccc3ccccc23)cc1` (stereo not drawn) [Compound 66, N-[2-(acetylamino)ethyl]-2-[4-(naphthalen-1-yloxy)phenyl]propanamide] has an IC50 of 6.61 µM. Work on `CC(C(=O)NCCN1CCOCC1)c1ccc(Oc2cccc3ccccc23)cc1` (stereo not drawn) [Compound 67, 2-[4-(naphthalen-1-yloxy)phenyl]-N-[2-(morpholin-4-yl)ethyl]propanamide] yielded an IC50 of 4.07 µM. Work on `CC(C(=O)Nc1ccncc1)c1ccc(Oc2cccc(F)c2)cc1` (stereo not drawn) [Compound 68, 2-[4-(3-fluroophenoxy)phenyl]-N-(pyridin-4-yl)propanamide] yielded an IC50 of 6.17 µM. For `CC(C(=O)Nc1ccncn1)c1ccc(N2CCCCC2)cc1` (stereo not drawn) [Compound 69, 2-[4-(piperidin-1-yl)phenyl]-N-(pyrimidin-4-yl)propanamide], the IC50 was 14.1 µM. Work on `CC(C(=O)NCCC1CCN(c2ccncc2)CC1)c1ccc(Nc2ccccc2-n2cccc2)cc1` (stereo not drawn) [Compound 70, N-{2-[1-(pyridin-4-yl)piperidin-4-yl]ethyl}-2-(4-{[2-(1H-pyrrol-1-yl)phenyl]amino}phenyl)propanamide] yielded an IC50 of 0.708 µM. In the case of `CC(C(=O)Nc1ccncc1)c1ccc(Nc2ccc(F)cc2)cc1` (stereo not drawn) [Compound 71, 2-{4-[(4-fluorophenyl)amino]phenyl}-N-(pyridin-4-yl)propanamide], the IC50 is reported as 4.47 µM. `CC(C(=O)Nc1ccncn1)c1ccc(Oc2ccc(F)cc2)cc1` (stereo not drawn) [Compound 72, 2-[4-(4-fluorophenoxy)phenyl]-N-(pyrimidin-4-yl)propanamide] showed an IC50 of 3.39 µM. Compound `CC(C(=O)Nc1ccncc1)c1cccc(Oc2ccc3ccccc3c2)c1` (stereo not drawn) [Compound 73, 2-[3-(naphthalen-2-yloxy)phenyl]-N-(pyridin-4-yl)propanamide] has an IC50 of 2.82 µM.
